Like-named read-outs stand apart in the source and are kept apart here.
Assays:
[1] = biological target: Recombinant full length PARP1 (Homo sapiens (Human), UniProt P09874); test: FP assay PARP1 (fluorescence anisotropy probe displacement); assay type: binding; conditions: 20 nM PARP1, 8 nM fluorescent probe, 4 h, room temperature
Description: (§1) FP experiments were carried out at room temperature using no-binding black 384-well microplates. Recombinant full length PARP1 and PARP2 proteins produced in house were diluted to 20 nM and 60 nM, respectively, with assay buffer (50 mM Tris pH 8, 0.001% Triton X100, 10 mM MgCl2, and 150 mM NaCl) and incubated for 4 h with an equivalent volume of the 8 nM fluorescent probe diluted with assay buffer. Fluorescence anisotropy of the probe when bound to the proteins was measured in the presence of test compounds or solvent control and the effect on anisotropy determined. Polarization values were read using an Envision plate reader using excitation and emission wavelengths of 590 and 630 nm, respectively. All FP values are expressed as mP units. Inhibition ratio was calculated using readout (mP) following the equation as below: […]
(§2) % inhibition values for different test compound concentrations were calculated and fitted to a four parameter logistic plot in order to determine the IC50 value using XLfit.

[2] = biological target: Recombinant full length PARP2 (Homo sapiens (Human), UniProt Q9UGN5); test: FP assay PARP2 (fluorescence anisotropy probe displacement); assay type: binding; conditions: 60 nM PARP2, 8 nM fluorescent probe, 4 h, room temperature
Description: as §1, §2

[3] = test system: DLD1-BRCA2−/− cells; test: Cell proliferation assay in DLD1-BRCA2−/− cell lines (CellTiter-Glo, 7 days); assay type: cell-based
Description: BRCA2 (−/−) cells cultured in RPMI 1640+10% FBS were harvested and diluted to a density of 1×10^4 cells/mL and 2×10^4 cells/mL, respectively. Cells (40 μL/well) were seeded into 384-well cell culture plates. Plates were covered and incubated at 37° C., 5% CO2 overnight prior to the addition of test compounds or vehicle. The plates were then incubated at 37° C., 5% CO2 for 7 days. On day 8, the plates were removed from incubator and equilibrated at room temperature for 15 minutes. CellTiter-Glo (40 μL, at 1:1 to culture medium) is added into each well and the plates were placed at room temperature for 30 min. Luminescence was measured using an Envision plate reader. The resultant data were analysed as follows; where LC is culture medium without cells:
% inhibition values for different test compound concentrations were calculated and fitted to a four parameter logistic plot in order to determine the IC50 value using XLfit

[4] = Caco2 (A-B/B-A) permeability; assay type: in vitro ADME; conditions: human; for efflux ratio at 120 min, 5 μM: Caco-2, pH 7.4, PappB-A/PappA-B, read-out: Caco2 efflux ratio (ER); for Papp A→B at 120 min, 5 μM: Caco-2, pH 7.4, apical-to-basolateral, read-out: Caco2 A-B apparent permeability (Papp); for Papp A→B at 120 min, 5 μM / Papp B→A at 120 min, 5 μM: HBSS pH 7.4, 120 min, 37° C.; for Papp B→A at 120 min, 5 μM: Caco-2, pH 7.4, basolateral-to-apical, read-out: Caco2 B-A apparent permeability (Papp)
Description: The apical-to-basolateral (A-B) and basolateral-to-apical (B-A) transport of 5 μM test compounds in HBSS (10 mM HEPES, pH 7.4) was measured across Caco-2 cell monolayers (cells sourced from American Type Culture Collection, Manassas, Virgina). Duplicate incubations were performed at approximately 37° C. for 120 min, with functionality of the test system confirmed using 5 μM propranolol and digoxin as control compounds. Aliquots (50 μL) from both apical and basolateral wells were transferred into two fresh 96-well plates and quenched with acetonitrile solution containing analytical internal standards. Samples were vortexed mixed, centrifuged and a 100 μL aliquot of the resulting supernatant mixed with an equal volume of ultra-pure water prior to analysis by UPLC-MS/MS. The concentrations of test compound and control compounds in the incubation medium of donor and receiver compartments at the beginning and the end of the incubation period were used to calculate the apparent permeability (Papp) from A-B and B-A directions. The efflux ratio (ER) was expressed as PappB-A/PappA-B. The integrity of the cell monolayers after 2 hours incubation was confirmed using the marker reagent Lucifer yellow.

Chain of Recombinant full length PARP1 (P09874 whole entry): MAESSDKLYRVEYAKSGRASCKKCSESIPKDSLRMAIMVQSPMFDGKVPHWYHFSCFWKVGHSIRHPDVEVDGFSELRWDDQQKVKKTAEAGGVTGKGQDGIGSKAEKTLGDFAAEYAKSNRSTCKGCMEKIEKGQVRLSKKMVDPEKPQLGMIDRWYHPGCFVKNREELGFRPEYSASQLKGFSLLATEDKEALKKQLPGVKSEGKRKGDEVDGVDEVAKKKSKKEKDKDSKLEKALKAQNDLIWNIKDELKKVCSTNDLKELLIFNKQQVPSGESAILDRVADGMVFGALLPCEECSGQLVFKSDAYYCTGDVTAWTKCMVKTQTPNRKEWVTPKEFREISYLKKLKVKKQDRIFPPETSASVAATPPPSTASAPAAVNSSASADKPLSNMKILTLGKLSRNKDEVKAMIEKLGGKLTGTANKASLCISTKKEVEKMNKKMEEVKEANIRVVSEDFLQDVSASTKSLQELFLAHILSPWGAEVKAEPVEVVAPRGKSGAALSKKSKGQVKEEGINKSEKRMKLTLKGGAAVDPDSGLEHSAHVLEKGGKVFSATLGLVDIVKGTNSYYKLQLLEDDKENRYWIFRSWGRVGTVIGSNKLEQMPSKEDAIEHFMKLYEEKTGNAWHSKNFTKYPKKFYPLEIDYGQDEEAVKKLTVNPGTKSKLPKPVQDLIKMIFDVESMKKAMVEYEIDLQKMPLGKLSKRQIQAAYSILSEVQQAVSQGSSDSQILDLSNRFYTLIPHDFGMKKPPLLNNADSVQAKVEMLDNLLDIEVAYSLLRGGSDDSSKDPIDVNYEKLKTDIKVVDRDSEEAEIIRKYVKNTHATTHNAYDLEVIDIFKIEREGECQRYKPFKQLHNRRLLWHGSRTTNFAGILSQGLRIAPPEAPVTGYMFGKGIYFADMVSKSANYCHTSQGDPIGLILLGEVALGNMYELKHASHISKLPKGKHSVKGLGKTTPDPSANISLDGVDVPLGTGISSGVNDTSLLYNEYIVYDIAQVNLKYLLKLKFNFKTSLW
Chain of Recombinant full length PARP2 (Q9UGN5 whole entry): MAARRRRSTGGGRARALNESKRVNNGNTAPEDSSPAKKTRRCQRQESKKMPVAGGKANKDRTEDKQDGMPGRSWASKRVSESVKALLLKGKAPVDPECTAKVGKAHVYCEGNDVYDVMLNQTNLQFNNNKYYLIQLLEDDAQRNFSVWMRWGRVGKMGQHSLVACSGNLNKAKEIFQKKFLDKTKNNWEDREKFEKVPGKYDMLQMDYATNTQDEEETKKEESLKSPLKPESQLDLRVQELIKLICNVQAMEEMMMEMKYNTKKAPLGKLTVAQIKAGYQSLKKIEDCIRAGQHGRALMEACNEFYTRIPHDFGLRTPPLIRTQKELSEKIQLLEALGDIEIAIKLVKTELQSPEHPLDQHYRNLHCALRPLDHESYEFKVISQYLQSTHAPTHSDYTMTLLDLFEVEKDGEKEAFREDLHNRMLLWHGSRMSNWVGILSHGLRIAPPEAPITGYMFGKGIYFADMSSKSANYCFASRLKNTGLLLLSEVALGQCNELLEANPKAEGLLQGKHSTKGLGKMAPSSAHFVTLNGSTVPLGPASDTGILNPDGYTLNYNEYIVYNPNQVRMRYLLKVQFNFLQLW

SMILES | IC50 [1] | IC50 [2] | IC50 ([3]; Homo sapiens, DLD-1, 168 h) | efflux ratio at 120 min, 5 μM [4] | Papp A→B at 120 min, 5 μM [4] | Papp B→A at 120 min, 5 μM [4] | IC50 [3]
CCc1cc2ncc(C(C)N3CC(Oc4ccc(C(=O)NC)nc4)C3)cc2[nH]c1=O (racemic) [Compound 43, 5-((1-(1-(7-ethyl-6-oxo-5,6-dihydro-1,5-naphthyridin-3-yl)ethyl)azetidin-3-yl)oxy)-N-methylpicolinamide] | 5.9 nM | 3760 nM | 12.2 nM |  |  |  | 
CCc1nc2ccc([C@H](C)N3CC(Oc4ccc(C(=O)NC)nc4F)C3)cc2[nH]c1=O (single isomer, unassigned) [Compound 56, (enantiomer 1 or 2)-5-((1-(1-(2-ethyl-3-oxo-3,4-dihydroquinoxalin-6-yl)ethyl)azetidin-3-yl)oxy)-6-fluoro-N-methylpicolinamide] | 11 nM |  | 10.9 nM | 3.01 | 8.54 ×10⁻⁶ cm/s | 25.8 ×10⁻⁶ cm/s | 
CNC(=O)c1ccc(O[C@@H]2CCN(Cc3cnc4cc(C5CC5)c(=O)[nH]c4c3)C2)cn1 (single isomer, unassigned) [Compound 60, (enantiomer 1 or 2)-5-((1-((7-cyclopropyl-6-oxo-5,6-dihydro-1,5-naphthyridin-3-yl)methyl)pyrrolidin-3-yl)oxy)-N-methylpicolinamide] | 64.3 nM | > 10000 nM |  |  |  |  | > 1000 nM
CNC(=O)c1ccc(O[C@@H]2CCN(Cc3cnc4cc(C5CC5)c(=O)[nH]c4c3)C2)cn1 (single isomer, unassigned) [Compound 61, (enantiomer 1 or 2)-5-((1-((7-cyclopropyl-6-oxo-5,6-dihydro-1,5-naphthyridin-3-yl)methyl)pyrrolidin-3-yl)oxy)-N-methylpicolinamide] | 6.62 nM | > 10000 nM |  |  |  |  | 40.7 nM
CCc1cc2ncc(CN3CC(N(C)c4ccc(C(=O)NC)nc4)C3)cc2[nH]c1=O [Compound 3, 5-((1-((7-ethyl-6-oxo-5,6-dihydro-1,5-naphthyridin-3-yl)methyl)azetidin-3-yl)(methyl)amino)-N-methylpicolinamide] | 4.3 nM | > 10000 nM | 221 nM |  |  |  | 
CCc1cc2ncc(CN3CCC(Cc4ccc(C(=O)NC)nc4)C3)cc2[nH]c1=O (stereo not shown) [Compound 7, 5-((1-((7-ethyl-6-oxo-5,6-dihydro-1,5-naphthyridin-3-yl)methyl)pyrrolidin-3-yl)methyl)-N-methylpicolinamide] | 7.8 nM | 7040 nM | 207 nM |  |  |  | 
CNC(=O)c1ccc(OC2CCN(Cc3cnc4cc(C5CC5)c(=O)[nH]c4c3)C2)cn1 (stereo not shown) [Compound 14, 5-((1-((7-cyclopropyl-6-oxo-5,6-dihydro-1,5-naphthyridin-3-yl)methyl)pyrrolidin-3-yl)oxy)-N-methylpicolinamide] | 6.6 nM | > 10000 nM | 48.6 nM |  |  |  | 
CCc1cc2ncc(CN3CCC(Oc4ccc(C(=O)NC)nc4)CC3)cc2[nH]c1=O [Compound 15, 5-((1-((7-ethyl-6-oxo-5,6-dihydro-1,5-naphthyridin-3-yl)methyl)piperidin-4-yl)oxy)-N-methylpicolinamide] | 18 nM | > 10000 nM | 195 nM |  |  |  | 
CCc1cc2ncc(C(C)N3CC(Oc4ccc(C(=O)NC)nc4C)C3)cc2[nH]c1=O (stereo not shown) [Compound 19, 5-((1-(1-(7-ethyl-6-oxo-5,6-dihydro-1,5-naphthyridin-3-yl)ethyl)azetidin-3-yl)oxy)-N,6-dimethylpicolinamide] | 6.1 nM | > 10000 nM | > 1000 nM |  |  |  | 
CCc1cc2ncc(C(C)N3CC(Oc4ccc(C(=O)NC)nc4F)C3)cc2[nH]c1=O (stereo not shown) [Compound 21, 5-((1-(1-(7-ethyl-6-oxo-5,6-dihydro-1,5-naphthyridin-3-yl)ethyl)azetidin-3-yl)oxy)-6-fluoro-N-methylpicolinamide] | 3.5 nM | 4810 nM | 17.2 nM |  |  |  | 
CCc1cc2ncc(CN3C[C@H](Oc4ccc(C(=O)NC)nc4)[C@@H](F)C3)cc2[nH]c1=O [Compound 24, 5-(((3S,4S)-1-((7-ethyl-6-oxo-5,6-dihydro-1,5-naphthyridin-3-yl)methyl)-4-fluoropyrrolidin-3-yl)oxy)-N-methylpicolinamide] | 7.3 nM | > 10000 nM | 542 nM |  |  |  | 
CCc1cc2ncc(CN3CC[C@@H](Oc4ccc(C(=O)NC)nc4F)C3)cc2[nH]c1=O [Compound 29, (R)-5-((1-((7-ethyl-6-oxo-5,6-dihydro-1,5-naphthyridin-3-yl)methyl)pyrrolidin-3-yl)oxy)-6-fluoro-N-methylpicolinamide] | 9.6 nM | > 10000 nM | 7.9 nM |  |  |  | 
CCc1cc2ncc(CN3CC[C@@H](Oc4ccc(C(=O)NC)nc4C)C3)cc2[nH]c1=O [Compound 30, (R)-5-((1-((7-ethyl-6-oxo-5,6-dihydro-1,5-naphthyridin-3-yl)methyl)pyrrolidin-3-yl)oxy)-N,6-dimethylpicolinamide] | 4.4 nM | > 10000 nM | 256 nM |  |  |  | 
CCc1cc2ncc(CN3CC4CC3CN4c3ccc(C(=O)NC)nc3)cc2[nH]c1=O (stereo not shown) [Compound 37, 5-(5-((7-ethyl-6-oxo-5,6-dihydro-1,5-naphthyridin-3-yl)methyl)-2,5-diazabicyclo [2.2.1]heptan-2-yl)-N-methylpicolinamide] |  |  | > 1000 nM | 18.8 | 1.61 ×10⁻⁶ cm/s | 30.2 ×10⁻⁶ cm/s | 
CCc1cc2ncc(CN3CC4CN(c5ccc(C(=O)NC)nc5)CC4C3)cc2[nH]c1=O (stereo not shown) [Compound 40, 5-(5-((7-ethyl-6-oxo-5,6-dihydro-1,5-naphthyridin-3-yl)methyl)hexahydropyrrolo [3,4-c]pyrrol-2(1H)-yl)-N-methylpicolinamide] |  |  | 181 nM | 8.32 | 4.29 ×10⁻⁶ cm/s | 35.7 ×10⁻⁶ cm/s | 
CCc1cc2ncc(CN3CC4CCN(c5ccc(C(=O)NC)nc5)C4C3)cc2[nH]c1=O (stereo not shown) [Compound 42, 5-(5-((7-ethyl-6-oxo-5,6-dihydro-1,5-naphthyridin-3-yl)methyl)hexahydropyrrolo[3,4-b]pyrrol-1(2H)-yl)-N-methylpicolinamide] |  |  | > 1000 nM | 7.71 | 4.57 ×10⁻⁶ cm/s | 35.3 ×10⁻⁶ cm/s | 
CCc1cc2ncc(CN3CC(Oc4ccc(C(=O)NC)nc4C)C3)cc2[nH]c1=O [Compound 44, 5-((1-((7-ethyl-6-oxo-5,6-dihydro-1,5-naphthyridin-3-yl)methyl)azetidin-3-yl)oxy)-N,6-dimethylpicolinamide] | 4.4 nM | > 10000 nM | > 1000 nM |  |  |  | 
CCc1nc2ccc(C(C)N3CC(Oc4ccc(-n5ccnn5)nc4)C3)cc2[nH]c1=O (stereo not shown) [Compound 54, 7-(1-(3-((6-(1H-1,2,3-triazol-1-yl)pyridin-3-yl)oxy)azetidin-1-yl)ethyl)-3-ethylquinoxalin-2(1H)-one] | 2.12 nM |  | 38.5 nM |  |  |  | 
CCc1nc2ccc(C(C)N3CC(Oc4ccc(C(=O)NC)nc4F)C3)c(F)c2[nH]c1=O (stereo not shown) [Compound 55, 5-((1-(1-(2-ethyl-5-fluoro-3-oxo-3,4-dihydroquinoxalin-6-yl)ethyl)azetidin-3-yl)oxy)-6-fluoro-N-methylpicolinamide] | 28.1 nM |  | 554 nM | 1.5 | 9.92 ×10⁻⁶ cm/s | 14.8 ×10⁻⁶ cm/s | 
CCc1cc2cnc(CN3CC[C@@H](Oc4ccc(C(=O)NC)nc4F)C3)cc2[nH]c1=O [Compound 62, (R)-5-((1-((3-ethyl-2-oxo-1,2-dihydro-1,6-naphthyridin-7-yl)methyl)pyrrolidin-3-yl)oxy)-6-fluoro-N-methylpicolinamide] |  |  | 1.6 nM | 12.7 | 2.46 ×10⁻⁶ cm/s | 31.2 ×10⁻⁶ cm/s | 

Source: patent US20250289814A1, “COMPOUNDS AS PARP1 INHIBITIORS” (NINGBO NEWBAY TECHNOLOGY DEVELOPMENT CO., LTD., priority 2022, published 2025)
